From EPA's ToxValDB 9.5 (doi:10.2903/j.efsa.2006.78r) come the findings set out here.

Data set [1] has as its system Lepomis macrochirus.
Data set [2] deals with Daphnia magna. The settings on record: chronic/long-term; duration: 21 days.
The subject of data set [3] is Rattus norvegicus. The settings on record: oral, histopathology: nonneoplastic.
Data set [4] concerns Apis mellifera. The conditions noted are these: acute; duration: 48 hours; oral; unspecified; mortality.
For data set [5], the system named is Cucumis sativus. The conditions noted are these: chronic/long-term; other.
Data set [6] relates to Tagia sp.
Data set [7] has as its system Bird.
Data set [8] deals with Typhlodromus pyri. Kind of data set: LR50; higher = less toxic. The conditions noted are these: not reported; mortality.
Setting [9] is: acute, oral, unspecified, mortality.

Turning to `CCCOC(=O)NCCCN(C)C.Cl` [Propamocarb hydrochloride], the LC50 in data set [1] (acute, duration: 96 hours, mortality) was over 92 µg/mL; in data set [6] (acute, duration: 14 days, mortality), over 660 mg/kg; in data set [7] (short-term, oral, feed, mortality), over 962 mg/kg-day. The NOEC in data set [1] (chronic/long-term, duration: 32 days) is over 6.3 mg/L; in [2], 12.3 mg/L; in data set [5], 9180 g/ha; in [6] (chronic/long-term, duration: 56 days, reproduction), 362 mg/kg; in [7] (reproductive), 105 mg/kg-day. Further, the NOAEL in data set [3] (chronic, duration: 52 weeks, diet, F) worked out at 29 mg/kg-day; in data set [3] (short-term, duration: 28 days, gavage), 100 mg/kg-day. Also, the LD50 in [4] was over 84 µg/piece, the LD50 in data set [7] (setting [9]) was over 1840 mg/kg-day and the LD50 under setting [9] was over 1330 mg/kg-day. The same molecule registered an LEC (chronic/long-term) of 104 mg/kg-day. This molecule gave an LR50 in data set [8] of over 360 g/ha.

By NOAEL is commonly meant the highest tested level that showed no adverse finding.
